Counter-ions that a name gives are not always drawn. Like-named read-outs stand apart in the source and are kept apart here. Non-standard residues stand in square brackets, D forms with d. Residues, ends and D or L forms follow the SMILES beside them. *: point of attachment. Sta = CC(C)C[C@H](N)[C@@H](O)CC(=O)O; pGlu = O=C1CC[C@@H](C(=O)O)N1; Isovaleryl = CC(C)CC(=O)*; Thz = O=C(O)[C@@H]1CSCN1
Columns and labels:
human NTCP [1] = biological target: T1, human NTCP (Homo sapiens, UniProt Q14973); assay: Screening taurocholate uptake assay (96-well, [14C]taurocholate, 10 µM drug)
T1 sequence (Q14973 1-349): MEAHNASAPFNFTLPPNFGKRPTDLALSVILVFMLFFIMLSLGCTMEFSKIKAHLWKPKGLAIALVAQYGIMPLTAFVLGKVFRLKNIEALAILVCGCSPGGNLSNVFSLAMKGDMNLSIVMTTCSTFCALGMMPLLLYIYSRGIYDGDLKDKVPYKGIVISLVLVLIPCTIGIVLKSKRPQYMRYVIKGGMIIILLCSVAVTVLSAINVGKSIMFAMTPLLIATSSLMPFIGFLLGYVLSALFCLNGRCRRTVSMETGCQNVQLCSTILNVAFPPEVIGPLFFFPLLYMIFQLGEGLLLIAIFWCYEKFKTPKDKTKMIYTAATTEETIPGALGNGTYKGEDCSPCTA

human NTCP [2] = biological target: T1, human NTCP; assay: Screening fluorescent competitive Myrcludex B-FITC binding assay (96-well, 10 µM drug)
[3] = Prestwick library screen, 10 µM drug, B-score of taurocholate uptake
[4] = combined ranking from functional and binding assay B-scores
[5] = Prestwick library screen, 10 µM drug, B-score of Myrcludex B-FITC binding
[6] = combined ranking from functional and binding screening assays
[7] = screen, 10 µM drug, taurocholate uptake
[8] = screen, 10 µM drug, Myrcludex B-FITC binding
[9] = Prestwick library screen, taurocholate uptake, 10 µM drug
[10] = ranking score beside the functional and binding assay B-scores of the screen
[11] = Prestwick library screen, Myrcludex B-FITC binding, 10 µM drug

| Compound | B-score functional assay (human NTCP [1]; [3]) | Ranking score (human NTCP [1]; [4]) | B-score binding assay (human NTCP [2]; [5]) | Ranking score (human NTCP [1]; [6]) | B-score functional assay (human NTCP [1]; [7]) | B-score binding assay (human NTCP [2]; [8]) | B-score functional assay (human NTCP [1]; [9]) | Ranking score (human NTCP [1]; [10]) | B-score binding assay (human NTCP [2]; [11]) | other results |
| --- | --- | --- | --- | --- | --- | --- | --- | --- | --- | --- |
| NC[C@@H]1O[C@H](O[C@H]2[C@@H](O)[C@H](O[C@@H]3[C@@H](O)[C@H](N)C[C@H](N)[C@H]3O[C@H]3O[C@H](CO)[C@@H](O)[C@H](O)[C@H]3N)O[C@@H]2CO)[C@H](N)[C@@H](O)[C@@H]1O [Paromomycin sulfate] | 0.247 | 976.576 | 1.613 | – | – | – | – | – | – | – |
| Fc1ccc([C@@H]2CCNC[C@H]2COc2ccc3c(c2)OCO3)cc1 [Paroxetine Hydrochloride] | 0.185 | 918.273 | 1.07 | – | – | – | – | – | – | – |
| CN1C(C)(C)CCCC1(C)C [Pempidine tartrate] | 1.102 | 1065.26 | 1.02 | – | – | – | – | – | – | – |
| CC(C)(C)NC[C@H](O)COc1ccccc1C1CCCC1 [Penbutolol sulfate] | – | – | – | 368.646 | 0.103 | -1.346 | – | – | – | – |
| O=C(O)CN(CCN(CC(=O)O)CC(=O)O)CCN(CC(=O)O)CC(=O)O [Pentetic acid] | – | – | – | 406.409 | -0.313 | -0.525 | – | – | – | – |
| CCCC(C)C1(CC)C(=O)NC(=O)NC1=O (stereo not drawn) [Pentobarbital] | – | – | – | – | – | – | – | – | – | B-score functional assay (human NTCP [1]): -0.299; Ranking score (human NTCP [1]): 697.378; B-score binding assay (human NTCP [2]): 1.244 |
| C[N+]1(CCCCC[N+]2(C)CCCC2)CCCC1.O=C([O-])C(O)C(O)C(=O)O.O=C([O-])C(O)C(O)C(=O)O [Pentolinium bitartrate] | – | – | – | 451.889 | -0.089 | -0.512 | – | – | – | – |
| C1CCc2nnnn2CC1 [Pentylenetetrazole] | – | – | – | – | – | – | 0.223 | 696.951 | -0.037 | – |
| CC(C)CC(=O)N[C@H](C(=O)N[C@H](C(=O)N[C@@H](CC(C)C)[C@@H](O)CC(=O)N[C@@H](C)C(=O)N[C@@H](CC(C)C)[C@@H](O)CC(=O)O)C(C)C)C(C)C [Pepstatin A] (Isovaleryl-VV[Sta]A[Sta]-OH) | – | – | – | – | – | – | 2.688 | 763.991 | -0.237 | – |
| CCCN1C[C@H](CSC)C[C@@H]2c3cccc4[nH]cc(c34)C[C@H]21 [Pergolide mesylate] | – | – | – | – | – | – | -0.089 | 708.625 | 0.514 | – |
| C1CCC(C(CC2CCCCN2)C2CCCCC2)CC1 (stereo not drawn) [Perhexiline maleate] | – | – | – | 400.32 | -0.011 | -0.916 | – | – | – | – |
| CCC[C@H](N[C@@H](C)C(=O)N1[C@H](C(=O)O)C[C@@H]2CCCC[C@@H]21)C(=O)OCC [Perindopril] | – | – | – | 319.862 | -2.428 | 1.021 | – | – | – | – |
| O=C1[C@H]2CCCC[C@H]2C(=O)N1CCCCN1CCN(c2nsc3ccccc23)CC1 [Perospirone] | 0.093 | 917.333 | 1.438 | – | – | – | – | – | – | – |
| CCOc1ccc(NC(C)=O)cc1 [Phenacetin] | 0.074 | 860.113 | 0.917 | – | – | – | – | – | – | – |
| NNCCc1ccccc1 [Phenelzine sulfate] | – | – | – | 418.784 | -0.221 | -0.533 | – | – | – | – |
| CC(Oc1ccccc1)C(=O)N[C@@H]1C(=O)N2[C@@H]1SC(C)(C)[C@@H]2C(=O)[O-].[K+] (stereo partly drawn) [Phenethicillin potassium salt] | – | – | – | 437.958 | -0.676 | -0.048 | – | – | – | – |
| CN(C)CCC(c1ccccc1)c1ccccn1 (stereo not drawn) [Pheniramine maleate] | – | – | – | 447.397 | -0.685 | -0.017 | – | – | – | – |
| CN1C(=O)CC(c2ccccc2)C1=O (stereo not drawn) [Phensuximide] | – | – | – | 401.836 | 0.043 | -1.044 | – | – | – | – |
| CC(C)(N)Cc1ccccc1.Cl [Phentermine hydrochloride] | 2.461 | 1114.52 | 0.892 | – | – | – | – | – | – | – |
| Cc1ccc(N(CC2=NCCN2)c2cccc(O)c2)cc1 [Phentolamine hydrochloride] | – | – | – | – | – | – | -0.082 | 785.945 | 1.392 | – |
| CCCCC1C(=O)N(c2ccccc2)N(c2ccccc2)C1=O [Phenylbutazone] | – | – | – | 440.765 | 0.138 | -0.956 | – | – | – | – |
| CC(N)C(O)c1ccccc1 (stereo not drawn) [Phenylpropanolamine hydrochloride] | – | – | – | – | – | – | – | – | – | B-score functional assay (human NTCP [1]): 0.305; Ranking score (human NTCP [1]): 449.533; B-score binding assay (human NTCP [2]): -0.994 |
| O=C(O)c1ccccc1C(=O)Nc1ccc(S(=O)(=O)Nc2nccs2)cc1 [Phthalylsulfathiazole] | 1.113 | 1099.94 | 1.374 | – | – | – | – | – | – | – |

| Compound | B-score functional assay (human NTCP [1]; [3]) | Ranking score (human NTCP [1]; [4]) | B-score binding assay (human NTCP [2]; [5]) | Ranking score (human NTCP [1]; [6]) | B-score functional assay (human NTCP [1]; [7]) | B-score binding assay (human NTCP [2]; [8]) | B-score functional assay (human NTCP [1]; [9]) | Ranking score (human NTCP [1]; [10]) | B-score binding assay (human NTCP [2]; [11]) | other results |
| --- | --- | --- | --- | --- | --- | --- | --- | --- | --- | --- |
| COc1ccc(C(=O)NCc2cccnc2)cc1C(=O)NCc1cccnc1.O [Picotamide monohydrate] | – | – | – | – | – | – | -0.041 | 752.987 | 0.672 | – |
| C=C(C)[C@@H]1[C@H]2OC(=O)[C@@H]1[C@]1(O)C[C@H]3O[C@]34C(=O)O[C@H]2[C@]14C [Picrotoxinin] | – | – | – | – | – | – | 0.075 | 754.999 | 0.17 | – |
| O=C1CC[C@@H](C(=O)N2CSC[C@H]2C(=O)O)N1 [Pidotimod] ([pGlu]-[Thz]-OH) | 1.132 | 884.212 | 0.063 | – | – | – | – | – | – | – |
| CC[C@@H]1C(=O)OC[C@@H]1Cc1cncn1C [Pilocarpine nitrate] | 0.794 | 931.987 | 0.358 | – | – | – | – | – | – | – |
| CC(N/C(=N\C#N)Nc1ccncc1)C(C)(C)C (stereo not drawn) [Pinacidil] | – | – | – | 332.839 | -0.832 | -0.477 | – | – | – | – |
| CC(C)NCC(O)COc1cccc2[nH]ccc12 (stereo not drawn) [Pindolol] | – | – | – | – | – | – | -0.046 | 777.082 | 0.992 | – |
| CCn1cc(C(=O)O)c(=O)c2cnc(N3CCNCC3)nc21 [Pipemidic acid] | – | – | – | – | – | – | -0.002 | 736.261 | 0.325 | – |
| CC[N+]1(C)CCCC(OC(=O)C(O)(c2ccccc2)c2ccccc2)C1 (stereo not drawn) [Pipenzolate bromide] | 2.623 | 1014.24 | 0.291 | – | – | – | – | – | – | – |
| CCN1CCCC(OC(=O)C(c2ccccc2)c2ccccc2)C1 (stereo not drawn) [Piperidolate hydrochloride] | – | – | – | 357.281 | 1.475 | -1.968 | – | – | – | – |
| NC(=O)CN1CCCC1=O [Piracetam] | – | – | – | – | – | – | 0.881 | 661.843 | -0.345 | – |
| Cc1nc2ccccn2c(=O)c1CCN1CCC(C(=O)c2ccc(F)cc2)CC1 [Pirenperone] | – | – | – | – | – | – | -0.092 | 829.554 | 3.342 | – |
| CN1CCN(CC(=O)N2c3ccccc3C(=O)Nc3cccnc32)CC1 [Pirenzepine dihydrochloride] | 0.753 | 857.349 | 0.089 | – | – | – | – | – | – | – |
| Cl.c1cnc(N2CCN(Cc3ccc4c(c3)OCO4)CC2)nc1 [Piribedil hydrochloride] | 0.676 | 974.49 | 0.754 | – | – | – | – | – | – | – |
| CCn1cc(C(=O)O)c(=O)c2cnc(N3CCCC3)nc21 [Piromidic acid] | 1.197 | 874.684 | 0.041 | – | – | – | – | – | – | – |
| CN1C(C(=O)Nc2ccccn2)=C(O)c2ccccc2S1(=O)=O [Piroxicam] | – | – | – | – | – | – | 0.754 | 662.993 | -0.312 | – |
| CC(C)(C)C(=O)OCOC(=O)[C@@H]1N2C(=O)[C@@H](/N=C/N3CCCCCC3)[C@H]2SC1(C)C [Pivmecillinam hydrochloride] | – | – | – | – | – | – | -0.103 | 729.338 | 0.838 | – |
| CN1CCC(=C2c3ccccc3CCc3sccc32)CC1.O=C(O)CC(O)C(=O)O [Pizotifen malate] | – | – | – | – | – | – | 0.156 | 745.131 | 0.057 | – |
| CCCN[C@H]1CCc2nc(N)sc2C1 [Pramipexole dihydrochloride] | – | – | – | 303.528 | -1.48 | -0.164 | – | – | – | – |
| CCCCOc1ccc(OCCCN2CCOCC2)cc1 [Pramoxine hydrochloride] | 1.223 | 1022.18 | 0.619 | – | – | – | – | – | – | – |
| CC(C(=O)O)c1ccc2c(c1)Cc1cccnc1O2 (stereo not drawn) [Pranoprofen] | – | – | – | – | – | – | -0.016 | 817.912 | 1.204 | – |
| C[C@]12C=CC(=O)C=C1CC[C@@H]1[C@@H]2C(=O)C[C@@]2(C)[C@H]1CC[C@]2(O)C(=O)CO [Prednisone] | – | – | – | 427.034 | -1.367 | 0.54 | – | – | – | – |
| CC(C)C[C@H](CN)CC(=O)O [Pregabalin] | 1.204 | 863.391 | 0.027 | – | – | – | – | – | – | – |
